The record followed here is paper PMC8175350, “Drug repurposing screens identify chemical entities for the development of COVID-19 interventions” (Nature Communications, 2021).

Where a name gives a salt, the structure may show the parent alone. Read-outs that look alike come from different tables or passages of the source. A value given as a limit tells only on which side of the number the result lay.

The test system of series [1] is SARS-CoV-2. The series can be described thus: microbe, parasite or virus in culture. Type of series: cell-based. The conditions noted are these: for EC50: read-out: HeLa-ACE2 CoV-2 EC50 GeoMean.
Series [2] in a line: Uninfected HeLa-ACE2 24 h live/dead cytotoxicity counter screen. Type of series: cell-based, human. The conditions noted are these: human, uninfected HeLa-ACE2 cells, unrounded geometric mean; read-out: HeLa-ACE2 uninfected cytotoxicity CC50 GeoMean.
Series [3] has as its system SARS-CoV-2. The series can be described thus: microbe, parasite or virus in culture. It is filed as cell-based.
For series [4], the system named is SARS-CoV-2. It is filed as cell-based.
The test system of series [5] is HeLa-ACE2 cells. The experiment in a line: cells. The conditions noted are these: Homo sapiens, HeLa-ACE2, read-out: HeLa-ACE2 cell count EC50 GeoMean, unrounded geometric mean.
For series [6], the system named is Calu-3 cells. The experiment in a line: cells. To be noted: Homo sapiens.
The nature of series [7]: Uninfected Calu-3 48 h Cell-Titer Glo cytotoxicity counter screen. To be noted: human, uninfected Calu-3 cells, Calu-3 uninfected cytotoxicity CC50 GeoMean, unrounded geometric mean.
For series [8], the system named is Calu-3 cells. The description is as above. The conditions noted are these: for CC50: read-out: Calu-3 uninfected cytotoxicity CC50 GeoMean.
For series [9], the system named is HeLa-ACE2 cells. The series can be described thus: Uninfected HeLa-ACE2 24 h live/dead cytotoxicity counter screen. Type of series: cell-based, human. The conditions noted are these: for CC50: read-out: HeLa-ACE2 uninfected cytotoxicity CC50 GeoMean.
The subject of series [10] is SARS-CoV-2. The experiment in a line: microbe, parasite or virus in culture. It is filed as cell-based. The source holds these as a separate data set.
Series [11] concerns SARS-CoV-2. Type of series: cell-based. To be noted: combination with remdesivir.
The test system of series [12] is HeLa-ACE2 cells. The experiment in a line: cells. It is filed as cell-based, human. To be noted: read-out: HeLa-ACE2 TOA cell count EC50 GeoMean.
Series [13] relates to HeLa-ACE2 cells. The conditions noted are these: for EC50: read-out: HeLa-ACE2 cell count EC50 GeoMean.
Series [14] relates to Calu-3 cells. The conditions noted are these: for EC50: read-out: Calu-3 cell count EC50 GeoMean; for Calu-3 cell count Sinf Average: curve-fit effect at infinite concentration.
Series [15] concerns HepG2. The experiment in a line: HepG2 72 h CellTiter-Glo cytotoxicity. The conditions noted are these: 72 h.
The test system of series [16] is HEK293T. The experiment in a line: HEK293T 72 h CellTiter-Glo cytotoxicity. To be noted: 72 h.
[17] abbreviates: curve-fit effect at infinite concentration, average.
The mark [18] stands for this setting: curve plateau at infinite concentration.
[19] abbreviates: unrounded geometric mean, read-out: Calu-3 CoV-2 EC50 GeoMean.

With `N=C(N)c1ccc2cc(OC(=O)c3ccc(N=C(N)N)cc3)ccc2c1` [Nafamostat mesylate], the EC50 in series [1] (Severe acute respiratory syndrome coronavirus 2, HeLa-ACE2, unrounded geometric mean) is over 9.59 µM; in [3] (Severe acute respiratory syndrome coronavirus 2, Calu-3, unrounded geometric mean, read-out: Calu-3 CoV-2 EC50 GeoMean) it was 0.024 µM; in [3] (Severe acute respiratory syndrome coronavirus 2, Calu-3, geomean, read-out: SARS-CoV-2 EC50), 0.024 µM; in series [5] it was over 9.59 µM; in series [6] (Calu-3, read-out: Calu-3 cell count EC50 GeoMean, unrounded geometric mean), 0.04 µM; in series [6] (Calu-3, read-out: cell count EC50, Calu-3, geomean, ^↑ = increasing dose-response curve), 0.04 µM. For the same compound, in series [2], the 50% cytotoxic concentration (CC50) at 24 h is over 39.8 µM. In addition, the Emax in series [3] (Severe acute respiratory syndrome coronavirus 2, Calu-3, 48 h, curve-fit effect at infinite concentration, average, read-out: Calu-3 CoV-2 Sinf Average) came to 93%; in series [6] (Calu-3, 48 h, read-out: Calu-3 cell count Sinf Average), 100%. Further, the “effect on viral replication in ALI-HBECs” value in [4] is recorded as “inhibited viral replication”. Moreover, the CC50 at 48 h in [7] is over 29.9 µM. Further, the “Calu-3 uninfected cytotoxicity Sinf Average” value in series [8] (setting [17]) is listed as -100%.

As for `CN(C)CC1=C[CH]([Fe][CH]2C=CC=C2)C=C1CNc1ccnc2cc(Cl)ccc12` (stereo not shown) [Ferroquine], the “HeLa-ACE2 CoV-2 Sinf Average” value in [1] (setting [18]) is -97%. For the same compound, the 50% effective concentration (EC50) in [1] (detail block) was 1.31 µM; in series [3] (read-out: Calu-3 CoV-2 EC50 GeoMean), over 9.98 µM; in series [10] (read-out: HeLa-ACE2 TOA CoV-2 EC50 GeoMean), over 9.59 µM; in series [12], over 9.59 µM; in series [13] (detail block), over 6.8 µM; in series [14] (detail block), over 9.98 µM. The “HeLa-ACE2 SI” value in series [1] (selectivity index, uninfected HeLa-ACE2 CC50 / SARS-CoV-2 EC50) is given as 10.29. Moreover, the “HeLa-ACE2 uninfected cytotoxicity Sinf Average” value in [9] (setting [18]) was -100%. Further, the CC50 in [9] (detail block) was 13.4 µM; in series [15] (read-out: HepG2 72-hour cytotoxicity CC50 GeoMean), 4.72 µM; in series [16] (read-out: HEK293T 72-hour cytotoxicty CC50 GeoMean), 7.24 µM; in series [8] (detail block), 17.5 µM. Further, in [3] (setting [18]), the “Calu-3 CoV-2 Sinf Average” value is on record as -100%. In addition, the “TOA:HeLa-ACE2 EC50 Ratio” value in [10] was found to be 7.345. The “HeLa-ACE2 TOA CoV-2 Sinf Average” value in series [10] (setting [18]) is given as -100%. Moreover, the “HeLa-ACE2 synergy score with remdesivi” value in series [11] is reported as -2.076 δ. For the same compound, the “HeLa-ACE2 cell count Sinf Average” value in [13] (setting [18]) is given as -53%. Also, in series [15], the “HepG2 72-hour cytotoxicity Sinf Average” value is on record as -100%. Besides, the “HEK293T 72-hour cytotoxicty Sinf Average” value in series [16] is -100%. In addition, in [8] (setting [18]), the “Calu-3 uninfected cytotoxicity Sinf Average” value is on record as -100%.

Regarding `COc1ccc(C[C@H]2NC[C@H](O)[C@H]2OC(C)=O)cc1` [Anisomycin], the “HeLa-ACE2 CoV-2 Sinf Average” value in series [1] (setting [17]) is listed as -102%. The EC50 was 0.0664 µM in series [1] (unrounded geometric mean), 0.127 µM in series [3] (setting [19]), 0.636 µM in series [13] (unrounded geometric mean) and over 2.46 µM in [14] (unrounded geometric mean). For the same compound, in series [9] (setting [17]), the “HeLa-ACE2 uninfected cytotoxicity Sinf Average” value is -98%. The “Calu-3 CoV-2 Sinf Average” value in [3] (setting [17]) is -98%. The “HeLa-ACE2 cell count Sinf Average” value in series [13] (setting [17]) was -103%. For the same compound, the “Calu-3 cell count Sinf Average” value in [14] is listed as 37%. Besides, the “Calu-3 uninfected cytotoxicity Sinf Average” value in [8] (setting [17]) is -66%.

For `NS(=O)(=O)c1ccc(N2N=C(C(F)(F)F)CC2c2c[nH]c3c(Cl)cccc23)cc1` (stereo not shown) [ON-09310], the “HeLa-ACE2 CoV-2 Sinf Average” value in [1] (setting [17]) is listed as -100%. Besides, the EC50 is 3.72 µM in series [1] (unrounded geometric mean), 1.81 µM in [3] (setting [19]), over 9.33 µM in [13] (unrounded geometric mean) and over 8.32 µM in series [14] (unrounded geometric mean). In addition, the “HeLa-ACE2 uninfected cytotoxicity Sinf Average” value in series [9] (setting [17]) is reported as -103%. Also, the CC50 was found to be 8.2 µM in [9] (unrounded geometric mean) and 16.9 µM in series [8] (unrounded geometric mean). Besides, the “Calu-3 CoV-2 Sinf Average” value in series [3] (setting [17]) is given as -95%. For the same compound, the “HeLa-ACE2 cell count Sinf Average” value in [13] (setting [17]) was -100%. For the same compound, the “Calu-3 cell count Sinf Average” value in [14] came out at 100%. In addition, the “Calu-3 uninfected cytotoxicity Sinf Average” value in [8] (setting [17]) is -97%.
